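Where inhibition never reached the appropriate level, the endpoint shown equals the highest concentration tested. Otherwise, values were interpolated linearly from a five-concentration, 48-hour dose response in 96-well plates. GI50 is the concentration that inhibits growth by half.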 Active and inactive are the calls of the source. No stated cut-off is given here; in the data, active = GI50 up to about 1.1 µM and inactive = higher.
Assays:
Assay in all cases: growth of human tumour cells (NCI), 48 h
OVCAR-4 = tested on: OVCAR-4
HCT-116 = tested on: HCT-116
UACC-62 = tested on: UACC-62
KM-20L2 = tested on: KM-20L2
SK-MEL-28 = tested on: SK-MEL-28
SK-MEL-2 = tested on: SK-MEL-2
SN12C = tested on: SN12C
A549 = tested on: A549
EKVX = tested on: EKVX
HCC 2998 = tested on: HCC 2998
RXF 631 = tested on: RXF 631
SW-620 = tested on: SW-620
TK-10 = tested on: TK-10
SF-295 = tested on: SF-295
CCRF-CEM = tested on: CCRF-CEM
NCI-H226 = tested on: NCI-H226
IGROV-1 = tested on: IGROV-1
SF-539 = tested on: SF-539
UO-31 = tested on: UO-31
HOP-62 = tested on: HOP-62
A498 = tested on: A498
LXFL 529 = tested on: LXFL 529
U-251 = tested on: U-251
OVCAR-5 = tested on: OVCAR-5
CAKI-1 = tested on: CAKI-1
SNB-78 = tested on: SNB-78
SNB-75 = tested on: SNB-75
DLD-1 = tested on: DLD-1
SK-OV-3 = tested on: SK-OV-3
XF498 = tested on: XF498
MOLT-4 = tested on: MOLT-4
ACHN = tested on: ACHN
M19-MEL = tested on: M19-MEL
HL-60 = tested on: HL-60
HOP-18 = tested on: HOP-18
UACC-257 = tested on: UACC-257
SF-268 = tested on: SF-268
OVCAR-3 = tested on: OVCAR-3
Malme-3M = tested on: Malme-3M
HOP-92 = tested on: HOP-92
OVCAR-8 = tested on: OVCAR-8
SNB-19 = tested on: SNB-19
COLO 205 = tested on: COLO 205
NCI-H522 = tested on: NCI-H522
DMS-273 = tested on: DMS-273
RPMI-8226 = tested on: RPMI-8226
KM12 = tested on: KM12
HCT-15 = tested on: HCT-15
K562 = tested on: K562
HT-29 = tested on: HT-29
SK-MEL-5 = tested on: SK-MEL-5
NCI-H460 = tested on: NCI-H460
DMS-114 = tested on: DMS-114
M14 = tested on: M14
NCI-H23 = tested on: NCI-H23
786-0 = tested on: 786-0
SR = tested on: SR
RXF 393 = tested on: RXF 393
LOX IMVI = tested on: LOX IMVI

COc1cccc(-n2c3nc(=O)n(C)c(=O)c-3nc3ccccc32)c1
GI50 (OVCAR-4): 12.3 µM (inactive) | GI50 (HCT-116): 23.1 µM (inactive) | GI50 (UACC-62): 4.06 µM (inactive) | GI50 (KM-20L2): 4.83 µM (inactive) | GI50 (SK-MEL-28): 22.1 µM (inactive) | GI50 (SK-MEL-2): 19.6 µM (inactive) | GI50 (SN12C): 13.7 µM (inactive) | GI50 (A549): 12.6 µM (inactive) | GI50 (EKVX): 29.8 µM (inactive) | GI50 (HCC 2998): 3.88 µM (inactive) | GI50 (RXF 631): 19.1 µM (inactive) | GI50 (SW-620): 5.09 µM (inactive) | GI50 (TK-10): 45.6 µM (inactive) | GI50 (SF-295): 13.2 µM (inactive) | GI50 (CCRF-CEM): 19 µM (inactive) | GI50 (NCI-H226): 17.7 µM (inactive) | GI50 (IGROV-1): 18.7 µM (inactive) | GI50 (SF-539): 12.4 µM (inactive) | GI50 (UO-31): 49.8 µM (inactive) | GI50 (HOP-62): 37.9 µM (inactive) | GI50 (A498): 34.5 µM (inactive) | GI50 (LXFL 529): 21.6 µM (inactive) | GI50 (U-251): 14.4 µM (inactive) | GI50 (OVCAR-5): 19.2 µM (inactive) | GI50 (CAKI-1): 16.2 µM (inactive) | GI50 (SNB-78): 29.1 µM (inactive) | GI50 (SNB-75): 19.6 µM (inactive) | GI50 (DLD-1): 25.2 µM (inactive) | GI50 (SK-OV-3): > 100 µM (inactive) | GI50 (XF498): 16.3 µM (inactive) | GI50 (MOLT-4): 16.3 µM (inactive) | GI50 (ACHN): 3.18 µM (inactive) | GI50 (M19-MEL): 2.43 µM (inactive) | GI50 (HL-60): 6.01 µM (inactive) | GI50 (HOP-18): 42.9 µM (inactive) | GI50 (UACC-257): 14.9 µM (inactive) | GI50 (SF-268): 16.7 µM (inactive) | GI50 (OVCAR-3): 2.69 µM (inactive) | GI50 (Malme-3M): 14.3 µM (inactive) | GI50 (HOP-92): 26 µM (inactive) | GI50 (OVCAR-8): 14.6 µM (inactive) | GI50 (SNB-19): 22 µM (inactive) | GI50 (COLO 205): 3.5 µM (inactive) | GI50 (NCI-H522): 29.3 µM (inactive) | GI50 (DMS-273): 6.95 µM (inactive) | GI50 (RPMI-8226): 12.5 µM (inactive) | GI50 (KM12): 27.1 µM (inactive) | GI50 (HCT-15): 13.4 µM | GI50 (K562): 24.2 µM (inactive) | GI50 (HT-29): 4.55 µM (inactive) | GI50 (SK-MEL-5): 3.24 µM (inactive) | GI50 (NCI-H460): 5.46 µM (inactive) | GI50 (DMS-114): 5.11 µM (inactive) | GI50 (M14): 11.7 µM (inactive) | GI50 (NCI-H23): 15.7 µM (inactive) | GI50 (786-0): 24.3 µM (inactive)

CN/C=C(\C(=O)c1ccc(OC)c(OC)c1)c1ccc(OC)cc1
GI50 (OVCAR-4): 24.5 µM (inactive) | GI50 (HCT-116): 4.06 µM (inactive) | GI50 (UACC-62): 16.4 µM (inactive) | GI50 (SK-MEL-28): 19.5 µM (inactive) | GI50 (SK-MEL-2): 15.7 µM (inactive) | GI50 (SN12C): 15.3 µM (inactive) | GI50 (A549): 34.6 µM (inactive) | GI50 (EKVX): 27.4 µM (inactive) | GI50 (HCC 2998): > 10 µM (inactive) | GI50 (RXF 631): 14.3 µM (inactive) | GI50 (SW-620): 17.3 µM (inactive) | GI50 (TK-10): 17 µM (inactive) | GI50 (SF-295): 40.1 µM (inactive) | GI50 (CCRF-CEM): 3.85 µM (inactive) | GI50 (NCI-H226): 11.3 µM (inactive) | GI50 (SR): 16.3 µM (inactive) | GI50 (IGROV-1): 27.4 µM (inactive) | GI50 (SF-539): 1.25 µM (inactive) | GI50 (UO-31): 12.2 µM (inactive) | GI50 (HOP-62): 24.7 µM (inactive) | GI50 (A498): 13.3 µM (inactive) | GI50 (LXFL 529): 16 µM (inactive) | GI50 (U-251): 9.29 µM (inactive) | GI50 (SNB-75): 30.1 µM (inactive) | GI50 (DLD-1): 15.6 µM (inactive) | GI50 (SK-OV-3): 45.9 µM (inactive) | GI50 (XF498): 18.5 µM (inactive) | GI50 (MOLT-4): 19.9 µM (inactive) | GI50 (ACHN): 22 µM (inactive) | GI50 (M19-MEL): 17.1 µM (inactive) | GI50 (HL-60): 11.3 µM (inactive) | GI50 (HOP-18): < 0.01 µM (active) | GI50 (UACC-257): 10.7 µM (inactive) | GI50 (SF-268): 24.2 µM (inactive) | GI50 (Malme-3M): > 10 µM (inactive) | GI50 (OVCAR-8): 15 µM (inactive) | GI50 (RXF 393): 14 µM (inactive) | GI50 (SNB-19): 17.5 µM (inactive) | GI50 (COLO 205): 17.8 µM (inactive) | GI50 (NCI-H522): 17 µM (inactive) | GI50 (DMS-273): 7.33 µM (inactive) | GI50 (RPMI-8226): 3.52 µM (inactive) | GI50 (LOX IMVI): 14.2 µM (inactive) | GI50 (KM12): 12.6 µM (inactive) | GI50 (HCT-15): 13.1 µM | GI50 (K562): 6.43 µM (inactive) | GI50 (HT-29): 16.3 µM (inactive) | GI50 (SK-MEL-5): 17.4 µM (inactive) | GI50 (NCI-H460): 19.2 µM (inactive) | GI50 (DMS-114): 18.6 µM (inactive) | GI50 (M14): 18.7 µM (inactive) | GI50 (NCI-H23): 30.3 µM (inactive) | GI50 (786-0): 11.4 µM (inactive)

N#Cc1c([N+](=O)[O-])cc(C(F)(F)F)cc1[N+](=O)[O-]
GI50 (OVCAR-4): 2.11 µM (inactive) | GI50 (HCT-116): 7.76 µM (inactive) | GI50 (UACC-62): 5.04 µM (inactive) | GI50 (KM-20L2): 17.1 µM (inactive) | GI50 (SK-MEL-28): 8.73 µM (inactive) | GI50 (SK-MEL-2): 18.5 µM (inactive) | GI50 (SN12C): 14.1 µM (inactive) | GI50 (A549): 19.5 µM (inactive) | GI50 (EKVX): 18 µM (inactive) | GI50 (RXF 631): 9.79 µM (inactive) | GI50 (SW-620): 3.26 µM (inactive) | GI50 (TK-10): 13.7 µM (inactive) | GI50 (SF-295): 4.74 µM (inactive) | GI50 (CCRF-CEM): 1.09 µM (active) | GI50 (NCI-H226): 21.6 µM (inactive) | GI50 (SR): 2.16 µM (inactive) | GI50 (IGROV-1): 5.65 µM (inactive) | GI50 (SF-539): 5.94 µM (inactive) | GI50 (UO-31): 19.2 µM (inactive) | GI50 (HOP-62): 18.4 µM (inactive) | GI50 (A498): 18.2 µM (inactive) | GI50 (LXFL 529): 2.07 µM (inactive) | GI50 (U-251): 18.8 µM (inactive) | GI50 (OVCAR-5): 18.1 µM (inactive) | GI50 (CAKI-1): 4.57 µM (inactive) | GI50 (SNB-78): 2.07 µM (inactive) | GI50 (SNB-75): 6.22 µM (inactive) | GI50 (DLD-1): 3.87 µM (inactive) | GI50 (SK-OV-3): 19.1 µM (inactive) | GI50 (XF498): 1.83 µM (inactive) | GI50 (MOLT-4): 2.08 µM (inactive) | GI50 (ACHN): 7.5 µM (inactive) | GI50 (M19-MEL): 2.54 µM (inactive) | GI50 (HL-60): 1.66 µM (inactive) | GI50 (HOP-18): 11.2 µM (inactive) | GI50 (UACC-257): 6.7 µM (inactive) | GI50 (SF-268): 13.1 µM (inactive) | GI50 (OVCAR-3): 16.7 µM (inactive) | GI50 (Malme-3M): 8.2 µM (inactive) | GI50 (HOP-92): 1.81 µM (inactive) | GI50 (OVCAR-8): 2.09 µM (inactive) | GI50 (RXF 393): 2.44 µM (inactive) | GI50 (SNB-19): 18.3 µM (inactive) | GI50 (COLO 205): 4.88 µM (inactive) | GI50 (NCI-H522): 0.59 µM (active) | GI50 (DMS-273): 4.49 µM (inactive) | GI50 (RPMI-8226): 2.57 µM (inactive) | GI50 (LOX IMVI): 2.64 µM (inactive) | GI50 (KM12): 5.25 µM (inactive) | GI50 (HCT-15): 8.89 µM | GI50 (K562): 2.05 µM (inactive) | GI50 (HT-29): 2.96 µM (inactive) | GI50 (SK-MEL-5): 15.3 µM (inactive) | GI50 (NCI-H460): 19.7 µM (inactive) | GI50 (DMS-114): 1.88 µM (inactive) | GI50 (M14): 4.85 µM (inactive) | GI50 (NCI-H23): 7.94 µM (inactive) | GI50 (786-0): 6.14 µM (inactive)
